The source made the active and inactive calls.
Tests used:
[1] = target: D(4) dopamine receptor (Homo sapiens) (UniProt P21917); conditions: Compound concentration 10.0 uM
[2] = species: Rattus norvegicus; conditions: Compound concentration 10.0 uM
[3] = target: Bromodomain and WD repeat-containing protein 1 (Homo sapiens, UniProt Q9NSI6); assay: WDR9(2) DiscoverX BROMOscan
[4] = target: 5-hydroxytryptamine receptor 5A (Homo sapiens) (UniProt P47898); conditions: Compound concentration 10.0 uM
[5] = target: Histone acetyltransferase KAT2A (Homo sapiens, UniProt Q92830); assay: GCN5L2 DiscoverX BROMOscan
[6] = target: T1, Bromodomain-containing protein 2 (Homo sapiens, UniProt P25440); assay: BRD2(1) DiscoverX BROMOscan
T1 sequence (P25440 whole entry): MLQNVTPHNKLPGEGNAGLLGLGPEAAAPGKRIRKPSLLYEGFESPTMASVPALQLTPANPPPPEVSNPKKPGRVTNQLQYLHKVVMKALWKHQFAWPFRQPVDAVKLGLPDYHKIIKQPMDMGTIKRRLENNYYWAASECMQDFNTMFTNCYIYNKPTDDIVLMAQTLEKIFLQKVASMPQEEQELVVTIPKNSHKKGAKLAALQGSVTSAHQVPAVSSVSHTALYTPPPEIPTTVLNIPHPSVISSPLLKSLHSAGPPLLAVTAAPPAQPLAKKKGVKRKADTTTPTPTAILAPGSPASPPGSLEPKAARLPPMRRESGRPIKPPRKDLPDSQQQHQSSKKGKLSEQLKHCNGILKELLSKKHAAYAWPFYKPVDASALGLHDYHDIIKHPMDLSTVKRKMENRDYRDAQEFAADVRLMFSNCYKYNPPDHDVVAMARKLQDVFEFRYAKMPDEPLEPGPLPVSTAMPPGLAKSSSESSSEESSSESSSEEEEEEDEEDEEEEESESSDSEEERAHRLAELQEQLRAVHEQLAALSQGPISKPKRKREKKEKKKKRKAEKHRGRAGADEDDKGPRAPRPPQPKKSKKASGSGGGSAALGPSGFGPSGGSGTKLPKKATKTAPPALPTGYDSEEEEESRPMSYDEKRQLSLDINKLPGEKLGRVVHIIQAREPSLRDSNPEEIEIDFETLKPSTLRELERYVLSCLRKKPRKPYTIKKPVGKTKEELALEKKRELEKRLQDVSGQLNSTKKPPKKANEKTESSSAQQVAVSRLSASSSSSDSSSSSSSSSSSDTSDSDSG

[7] = target: GABA-A receptor; anion channel (Rattus norvegicus) (UniProt O09028+P15431+P18506+P18508+P19969+P20236+P23574+P23576+P28471+P28473+P30191+P62813+P63079+P63138+Q91ZM7+Q9ES14); conditions: Compound concentration 10.0 uM
[8] = target: D(3) dopamine receptor (Homo sapiens, UniProt P35462); conditions: Compound concentration 10.0 uM
[9] = target: 5-hydroxytryptamine receptor 6 (Homo sapiens) (UniProt P50406); conditions: Compound concentration 10.0 uM
[10] = target: T2, 5-hydroxytryptamine receptor 2A (Homo sapiens, UniProt P28223); conditions: Compound concentration 10.0 uM
T2 sequence (P28223 whole entry): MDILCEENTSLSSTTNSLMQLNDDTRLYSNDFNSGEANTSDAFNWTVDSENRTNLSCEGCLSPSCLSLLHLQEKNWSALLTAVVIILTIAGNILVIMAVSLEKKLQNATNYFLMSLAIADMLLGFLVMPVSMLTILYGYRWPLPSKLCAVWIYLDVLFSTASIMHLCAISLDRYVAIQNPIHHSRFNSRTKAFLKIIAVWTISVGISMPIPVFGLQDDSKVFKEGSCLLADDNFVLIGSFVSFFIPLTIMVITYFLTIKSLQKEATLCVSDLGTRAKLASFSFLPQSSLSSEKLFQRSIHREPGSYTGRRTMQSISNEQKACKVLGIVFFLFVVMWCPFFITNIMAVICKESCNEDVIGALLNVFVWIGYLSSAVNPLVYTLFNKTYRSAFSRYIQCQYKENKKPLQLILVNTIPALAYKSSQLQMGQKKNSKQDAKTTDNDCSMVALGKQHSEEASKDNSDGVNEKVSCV

[11] = target: T3, Bromodomain-containing protein 3 (Homo sapiens, UniProt Q15059); assay: TR-FRET assay (BRD3 BD1)
Target sequence in this assay (Q15059 whole entry): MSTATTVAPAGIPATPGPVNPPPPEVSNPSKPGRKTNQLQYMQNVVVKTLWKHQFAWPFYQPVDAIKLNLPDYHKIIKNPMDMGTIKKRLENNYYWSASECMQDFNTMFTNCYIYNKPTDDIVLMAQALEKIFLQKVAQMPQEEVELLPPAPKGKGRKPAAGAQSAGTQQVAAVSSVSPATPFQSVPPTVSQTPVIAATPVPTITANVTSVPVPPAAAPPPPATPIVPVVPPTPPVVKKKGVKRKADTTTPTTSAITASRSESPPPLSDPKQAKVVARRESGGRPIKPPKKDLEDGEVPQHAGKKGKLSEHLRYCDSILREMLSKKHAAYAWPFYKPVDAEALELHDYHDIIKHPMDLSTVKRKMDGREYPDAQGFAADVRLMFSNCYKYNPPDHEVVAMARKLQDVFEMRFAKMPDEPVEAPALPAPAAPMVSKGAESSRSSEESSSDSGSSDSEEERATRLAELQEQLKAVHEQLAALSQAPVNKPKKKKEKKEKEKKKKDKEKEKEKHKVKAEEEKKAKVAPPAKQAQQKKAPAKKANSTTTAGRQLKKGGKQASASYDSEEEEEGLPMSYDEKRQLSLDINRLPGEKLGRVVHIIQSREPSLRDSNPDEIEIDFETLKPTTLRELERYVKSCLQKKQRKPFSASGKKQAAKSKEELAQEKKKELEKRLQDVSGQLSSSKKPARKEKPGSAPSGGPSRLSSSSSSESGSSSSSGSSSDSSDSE

[12] = target: D(1A) dopamine receptor (Homo sapiens, UniProt P21728); conditions: Compound concentration 10.0 uM
[13] = target: Transcription initiation factor TFIID subunit 1 (Homo sapiens, UniProt P21675); assay: TAF1(2) DiscoverX BROMOscan
[14] = target: Histone acetyltransferase p300 (Homo sapiens, UniProt Q09472); assay: EP300 DiscoverX BROMOscan
[15] = target: Muscarinic acetylcholine receptor M4 (Homo sapiens) (UniProt P08173); conditions: Compound concentration 10.0 uM
[16] = target: E3 ubiquitin-protein ligase TRIM33 (Homo sapiens, UniProt Q9UPN9); assay: TRIM33(PHD,Bromo.) DiscoverX BROMOscan
[17] = target: Kappa-type opioid receptor (Homo sapiens, UniProt P41145); conditions: Compound concentration 10.0 uM
[18] = target: Solute carrier organic anion transporter family member 1B1 (Homo sapiens, UniProt Q9Y6L6); assay: (§1) Cross screening panel
[19] = target: T4, 5-hydroxytryptamine receptor 3A (Homo sapiens, UniProt P46098); assay: as §1
T4 sequence (P46098 whole entry): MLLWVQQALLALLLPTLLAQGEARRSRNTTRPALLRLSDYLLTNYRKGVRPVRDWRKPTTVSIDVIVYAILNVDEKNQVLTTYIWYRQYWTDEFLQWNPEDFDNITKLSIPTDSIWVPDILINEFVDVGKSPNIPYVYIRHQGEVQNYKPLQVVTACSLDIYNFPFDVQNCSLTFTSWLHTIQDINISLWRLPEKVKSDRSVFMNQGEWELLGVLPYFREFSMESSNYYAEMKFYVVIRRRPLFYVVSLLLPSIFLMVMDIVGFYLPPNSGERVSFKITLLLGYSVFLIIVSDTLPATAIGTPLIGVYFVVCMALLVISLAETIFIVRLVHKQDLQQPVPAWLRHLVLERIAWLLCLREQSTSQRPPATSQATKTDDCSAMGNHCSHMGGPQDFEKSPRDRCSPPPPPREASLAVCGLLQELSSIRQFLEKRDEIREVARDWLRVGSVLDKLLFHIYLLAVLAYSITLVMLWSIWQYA

[20] = target: Nuclear receptor subfamily 1 group I member 2 (Homo sapiens, UniProt O75469); assay: as §1
[21] = target: T5, Sodium-dependent serotonin transporter (Homo sapiens, UniProt P31645); assay: as §1
[22] = target: Beta-2 adrenergic receptor (Homo sapiens, UniProt P07550); assay: as §1
Chain of Beta-2 adrenergic receptor (P07550 whole entry): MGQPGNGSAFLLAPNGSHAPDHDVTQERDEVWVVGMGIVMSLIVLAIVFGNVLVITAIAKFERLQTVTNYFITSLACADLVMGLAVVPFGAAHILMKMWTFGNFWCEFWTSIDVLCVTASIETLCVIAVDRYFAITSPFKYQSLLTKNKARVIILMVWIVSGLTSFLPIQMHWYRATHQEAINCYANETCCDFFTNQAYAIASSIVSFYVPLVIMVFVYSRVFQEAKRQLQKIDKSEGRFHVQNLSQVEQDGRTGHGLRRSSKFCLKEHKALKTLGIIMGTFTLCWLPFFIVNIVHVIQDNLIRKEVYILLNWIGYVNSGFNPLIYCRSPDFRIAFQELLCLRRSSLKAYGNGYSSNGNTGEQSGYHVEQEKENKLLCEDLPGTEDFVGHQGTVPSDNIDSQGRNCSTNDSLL

[23] = target: Voltage-dependent L-type calcium channel subunit alpha-1C (Homo sapiens, UniProt Q13936); assay: as §1
[24] = target: Cannabinoid receptor 2 (Homo sapiens, UniProt P34972); assay: as §1
Chain of Cannabinoid receptor 2 (P34972 whole entry): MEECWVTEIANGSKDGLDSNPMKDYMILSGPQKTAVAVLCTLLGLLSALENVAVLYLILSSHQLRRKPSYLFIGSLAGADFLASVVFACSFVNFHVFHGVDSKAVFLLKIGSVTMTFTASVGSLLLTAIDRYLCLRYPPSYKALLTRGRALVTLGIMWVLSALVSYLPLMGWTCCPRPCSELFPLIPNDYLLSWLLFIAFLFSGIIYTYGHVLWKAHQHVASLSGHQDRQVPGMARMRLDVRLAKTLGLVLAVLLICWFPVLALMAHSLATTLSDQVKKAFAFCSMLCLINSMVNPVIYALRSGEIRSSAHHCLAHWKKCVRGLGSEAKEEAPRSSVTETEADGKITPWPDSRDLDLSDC

[25] = target: Voltage-gated inwardly rectifying potassium channel KCNH2 (Homo sapiens, UniProt Q12809); assay: as §1
[26] = target: Muscarinic acetylcholine receptor M2 (Homo sapiens, UniProt P08172); assay: as §1
Chain of Muscarinic acetylcholine receptor M2 (P08172 whole entry): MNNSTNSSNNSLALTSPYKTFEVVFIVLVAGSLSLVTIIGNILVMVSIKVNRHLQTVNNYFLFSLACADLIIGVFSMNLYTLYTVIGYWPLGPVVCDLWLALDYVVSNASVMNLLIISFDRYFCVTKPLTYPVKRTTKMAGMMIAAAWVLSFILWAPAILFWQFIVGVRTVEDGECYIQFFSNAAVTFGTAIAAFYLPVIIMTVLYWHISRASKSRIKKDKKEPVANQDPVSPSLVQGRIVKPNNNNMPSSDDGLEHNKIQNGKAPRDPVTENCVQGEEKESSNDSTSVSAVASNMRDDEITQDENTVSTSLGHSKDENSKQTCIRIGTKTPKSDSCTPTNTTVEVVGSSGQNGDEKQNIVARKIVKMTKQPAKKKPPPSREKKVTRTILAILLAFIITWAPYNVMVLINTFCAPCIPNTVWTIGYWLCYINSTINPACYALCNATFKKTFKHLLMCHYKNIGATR

[27] = target: Sodium channel protein type 5 subunit alpha (Homo sapiens, UniProt Q14524); assay: as §1
[28] = target: Aurora kinase B (Homo sapiens, UniProt Q96GD4); assay: as §1
[29] = target: T2, 5-hydroxytryptamine receptor 2A; assay: as §1
[30] = target: Histamine H1 receptor (Homo sapiens, UniProt P35367); assay: as §1
[31] = target: 5-hydroxytryptamine receptor 1A (Homo sapiens) (UniProt P08908); conditions: Compound concentration 10.0 uM
[32] = target: Cytochrome P450 3A4 (Homo sapiens, UniProt P08684); assay: as §1
[33] = target: Transcription initiation factor TFIID subunit 1-like (Homo sapiens, UniProt Q8IZX4); assay: TAF1L(2) DiscoverX BROMOscan
[34] = target: Voltage-gated potassium channel, IKs; KCNQ1(Kv7.1)/KCNE1(MinK) (Homo sapiens, UniProt P15382+P51787); assay: as §1; assay type: protein-complex assay
Chain of Voltage-gated potassium channel, IKs; KCNQ1(Kv7.1)/KCNE1(MinK) (P51787 whole entry): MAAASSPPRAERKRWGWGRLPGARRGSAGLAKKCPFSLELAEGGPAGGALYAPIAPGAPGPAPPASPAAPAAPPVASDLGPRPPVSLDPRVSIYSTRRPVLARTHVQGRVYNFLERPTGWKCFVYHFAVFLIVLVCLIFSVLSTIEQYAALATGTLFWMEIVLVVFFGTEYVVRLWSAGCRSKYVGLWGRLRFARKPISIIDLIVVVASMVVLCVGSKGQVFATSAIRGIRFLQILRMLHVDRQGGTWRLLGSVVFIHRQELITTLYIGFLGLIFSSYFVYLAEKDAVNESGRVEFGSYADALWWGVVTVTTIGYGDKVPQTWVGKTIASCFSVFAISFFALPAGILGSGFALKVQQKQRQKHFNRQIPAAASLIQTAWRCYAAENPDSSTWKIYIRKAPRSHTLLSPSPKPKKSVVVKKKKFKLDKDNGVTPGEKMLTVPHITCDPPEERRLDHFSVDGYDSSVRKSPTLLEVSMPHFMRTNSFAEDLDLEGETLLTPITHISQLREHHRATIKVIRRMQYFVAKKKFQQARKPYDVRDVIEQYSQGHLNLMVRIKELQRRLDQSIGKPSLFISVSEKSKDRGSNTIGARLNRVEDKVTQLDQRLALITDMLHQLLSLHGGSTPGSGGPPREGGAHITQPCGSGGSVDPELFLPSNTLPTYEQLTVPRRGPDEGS

[35] = target: Nucleosome-remodeling factor subunit BPTF (Homo sapiens, UniProt Q12830); assay: FALZ DiscoverX BROMOscan
[36] = target: T5, Sodium-dependent serotonin transporter; conditions: Compound concentration 10.0 uM
[37] = target: Alpha-1A adrenergic receptor (Homo sapiens) (UniProt P35348); conditions: Compound concentration 10.0 uM
[38] = target: Bromodomain-containing protein 9 (Homo sapiens, UniProt Q9H8M2); assay: BRD9 DiscoverX BROMOscan
[39] = target: T3, Bromodomain-containing protein 3; assay: BRD3 Bromoscan (DiscoverX)
Target sequence in this assay (Q15059 whole entry): as the sequence (Q15059 whole entry) above

[40] = target: T3, Bromodomain-containing protein 3; assay: BET mutant TR-FRETassay (BRD3 BD1)
Target sequence in this assay (Q15059 2-726 limits assumed, change not shown): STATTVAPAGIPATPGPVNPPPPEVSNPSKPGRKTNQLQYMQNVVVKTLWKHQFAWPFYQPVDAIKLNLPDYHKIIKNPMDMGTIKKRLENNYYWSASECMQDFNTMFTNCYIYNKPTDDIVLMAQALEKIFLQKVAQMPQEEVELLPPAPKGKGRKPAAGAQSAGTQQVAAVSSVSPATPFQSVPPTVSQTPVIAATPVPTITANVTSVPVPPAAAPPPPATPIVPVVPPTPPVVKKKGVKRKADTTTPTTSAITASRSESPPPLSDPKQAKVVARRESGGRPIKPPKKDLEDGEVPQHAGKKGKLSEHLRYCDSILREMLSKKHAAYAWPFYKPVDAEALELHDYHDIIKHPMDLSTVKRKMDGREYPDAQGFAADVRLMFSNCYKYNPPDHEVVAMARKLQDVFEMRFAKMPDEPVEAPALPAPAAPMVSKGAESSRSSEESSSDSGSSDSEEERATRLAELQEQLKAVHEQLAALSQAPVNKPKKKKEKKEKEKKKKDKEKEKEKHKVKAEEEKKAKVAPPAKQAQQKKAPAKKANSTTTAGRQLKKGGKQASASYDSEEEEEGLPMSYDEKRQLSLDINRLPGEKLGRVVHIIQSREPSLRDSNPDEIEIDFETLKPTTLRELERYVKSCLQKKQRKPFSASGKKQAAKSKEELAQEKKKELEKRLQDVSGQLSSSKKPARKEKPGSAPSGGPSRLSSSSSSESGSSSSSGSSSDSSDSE

[41] = target: Bromodomain adjacent to zinc finger domain protein 2A (Homo sapiens, UniProt Q9UIF9); assay: BAZ2A DiscoverX BROMOscan
[42] = target: Bromodomain-containing protein 1 (Homo sapiens, UniProt O95696); assay: BRD1 DiscoverX BROMOscan
[43] = target: T1, Bromodomain-containing protein 2; assay: BRD2(2) DiscoverX BROMOscan
[44] = target: 5-hydroxytryptamine receptor 7 (Homo sapiens) (UniProt P34969); conditions: Compound concentration 10.0 uM
[45] = target: T3, Bromodomain-containing protein 3; assay: BET mutant TR-FRET assay (BRD3 BD2)
Target sequence in this assay (Q15059 2-726 limits assumed, change not shown): as above

COCc1nc2cnc3cc(-c4c(C)noc4C)c(OC[C@H]4CCNC4)cc3c2n1[C@H](C)c1ccccc1 [GSK778]
30 µM: Kd [3] | Kd [5] | Kd [13] | Kd [16] | Kd [33] | Kd [35] | Kd [38] | Kd [41] | Kd [42]
inactive: inhibition [2] 7.75% | inhibition [4] 21.5% | inhibition [9] -9.08% | inhibition [10] -5.06% | inhibition [12] 2.89% | inhibition [15] 15.7% | inhibition [17] 15.5% | inhibition [31] 15.3% | inhibition [36] 10.7% | inhibition [37] 0.31% | inhibition [44] -5.39%
39.8 µM: IC50 [18] | IC50 [21] | IC50 [25]
5.7 µM: Kd [14]
1 µM: IC50 [32]
> 100 µM: EC50 [22] | IC50 [22] | IC50 [23] | EC50 [24]
0.84 µM: Kd [43]
> 25.1 µM: EC50 [29] | IC50 [29] | IC50 [30] | IC50 [34]
10 µM: IC50 [26]
6: pIC50 [45]
50.1 µM: IC50 [27]
7.4: pIC50 [40]
> 31.6 µM: IC50 [28]
active: inhibition [1] 79.5% | inhibition [7] 91.6% | inhibition [8] 62.4% | IC50 [11] 0.041 µM | Kd [39] 0.005 µM
> 50.1 µM: EC50 [19] | IC50 [19] | EC50 [20] | EC50 [26]
0.013 µM: Kd [6]

From ChEMBL document CHEMBL4630907 (2021)
